Experimental data as given in patent publication US20240279247A1, “PRODRUGS OF BORON COMPOUNDS AND THEIR USE IN TREATING BACTERIAL INFECTIONS” (priority 2022, published 2024).
Like-named read-outs stand apart in the source and are kept apart here.

Columns and labels:
P. aeruginosa PAE 1001 = test: In vitro antibacterial activity (MIC), P. aeruginosa; type: cell-based; conditions: Pseudomonas aeruginosa, PAE1001
Text: (§1) The in vitro activity of compounds described herein may be assessed by standard testing procedures such as the determination of minimum inhibitory concentration (MIC) as described in Approved Standard. Methods for Dilution Antimicrobial Susceptibility Tests for Bacteria that Grow Aerobically, 3rd ed., 1993, published by the National Committee for Clinical Laboratory standards, Villanova, Pennsylvania, USA. Low MIC values indicate high antibacterial activity, while high MIC values reveal a reduced antibacterial activity (with higher drug concentration required for pathogen eradication in the latter instance). Generally, MIC values of about ≤4-8 μg/mL indicate a therapeutic (i.e. suitable for therapy) potency for antibacterial drugs, while MIC values of ≥16 μg/mL indicate a lack of therapeutically useful activity for a test compound.

A. baumannii MABA 0001 = test: In vitro antibacterial activity (MIC), A. baumannii; type: cell-based; conditions: Acinetobacter baumannii, MABA0001
Text: as §1

K. pneumoniae ATCC10031 = test: In vitro antibacterial activity (MIC), K. pneumoniae; type: cell-based; conditions: Klebsiella pneumoniae
Text: as §1

E. coli MECO 002 = test: In vitro antibacterial activity (MIC), E. coli; type: cell-based; conditions: Escherichia coli, MECO002
Text: as §1

[1] = Pharmacokinetic study in rat (iv or oral gavage); type: in vivo, SD rats; conditions: SD rat; for AUC compared with that of Example 5, in words: oral
Text: To further elucidate therapeutic potential of drug compounds, pharmacokinetic (PK) data is used to establish the key parameters predictive of the therapy outcome, such as area under the curve (AUC) for a plot monitoring the change in the systemic drug concentration over time. Thus, a higher AUC value indicates a greater exposure to the drug, commonly associated with a greater therapeutic potential due to a higher amount of drug available to combat the infection in a mammal. In contrast, a lower AUC value indicates a reduced exposure to the drug under study, resulting in a reduced amount of antibiotic available to combat bacterial infestations. To that end, the compounds described herein were tested in a rat PK model of oral administration performed analogously to methods described in the monograph Current Protocols in Pharmacology, 2005, 7.1.1-7.1.26, John Wiley & Sons, Inc.
All the compounds were administered to SD rats (The rats were randomly divided into groups with 3 rats in each group) by intravenous (iv) or oral gavage. Since the prodrugs are expected to convert to the parent molecule in vivo, only the parent compound (the compound of Example 5) was tested for all samples. […] This low bioavailability as well as low exposure (AUC) and C max make it inappropriate for development as oral drug. […] Because the prodrugs usually have larger molecular weight due to the introduction of prodrug substructures, the AUC is corrected by dose and molecular weight (MW) to give AUC per mole, to compare the efficiency among the prodrugs.

[2] = system: Pseudomonas aeruginosa WPAE 1004; test: Pseudomonas aeruginosa mouse lung infection model; type: in vivo; conditions: ICR mouse, po 10 mg/kg once daily; for WPAE 1004, Lg (CFU/lung) 24 h: oral suspension; for Δ 24 h (Control-Theray), log reduction of CFU in lung: vs untreated control
Procedure: To establish the efficacy of the compounds described herein in vivo, a Pseudomonas aeruginosa mouse lung infection model was performed by administering test compounds analogously to the method described in Andes et al. in Antimicrobial Agents and Chemotherapy, 2002, 46(11), 3484-3489. In this model, a greater reduction in the bacterial colony-forming units (CFU) indicates more beneficial therapeutic effect (more bacterial eradication), while a lower CFU reduction indicates a lower effect (less bacterial eradication). The in vivo antibacterial effect is also referred to as “efficacy”, in contrast to the term “potency,” which is commonly used for in vitro activity (expressed as MIC).
In the Pseudomonas aeruginosa ICR mouse (The mice were randomly divided into groups with 6 mice in each group) lung infection, reference Example 5 was administered orally at 10 mg/kg once daily. […] As a prodrug for oral administration, the compound of Example 2 and 8 were also given by oral gavage at 10 mg/kg once daily. […] The data is strongly supportive of the prodrug of Example 2 and 8 being converted to reference compound of Example 5 after oral administration to exert the antibacterial activity. The data also supports a high conversion rate.

[3] = Lung vs. plasma distribution study in mice; type: in vivo; conditions: Balb/C mouse
[4] = system: Gram-negative bacteria, including Pseudomonas aeruginosa, Acinetobacter baumannii, Escherichia coli, and Klebsiella pneumoniae; test: In vitro antibacterial activity (MIC), summary over Gram-negative bacteria; type: cell-based; conditions: for in vitro antibacterial activity in words: prodrugs of Example 5, Table 1 data
Text: as §1

[5] = in vivo, iv 5 mg/kg, parent compound (Example 5) measured

Row | Structure (SMILES) | MIC (P. aeruginosa PAE 1001) [µg/mL] | MIC (A. baumannii MABA 0001) [µg/mL] | MIC (K. pneumoniae ATCC10031) [µg/mL] | MIC (E. coli MECO 002) [µg/mL] | AUC compared with that of Example 5, in words [1] | WPAE 1004, Lg (CFU/lung) 24 h [2] | Δ 24 h (Control-Theray), log reduction of CFU in lung [2] | AUClast, lung ([3]; Example 2 10 mg/kg po, levels for Example 2) [ng·h/g] | AUClast, lung ([3]; Example 2 10 mg/kg po, levels for Example 5) [ng·h/g] | in vitro antibacterial activity in words [4] | AUC [1, 5] [ng·h/mL] | Cmax [1, 5] [ng/mL] | AUClast, lung ([3]; Example 5 10 mg/kg iv, levels for Example 5) [ng·h/g] | Kp ([3]; lung/plasma, Example 5 10 mg/kg iv, levels for Example 5, read-out: AUC ratio (lung/plasma)) | half-life ([3]; lung, Example 5 10 mg/kg iv, levels for Example 5, read-out: t1/2, lung (converted)) [h] | AUC(0-t) ([3]; plasma, Example 5 10 mg/kg iv, levels for Example 5, read-out: AUClast, plasma) [ng·h/mL] | half-life ([3]; plasma, Example 5 10 mg/kg iv, levels for Example 5, read-out: t1/2, plasma (converted)) [h] | MIC range against Gram-negative bacteria ([4]; range over the four strains of Table 1) [µg/mL]
1 | CC(=O)OC[C@H](COc1cccc2c1B(O)O[C@@H]2CN)OC(C)=O.Cl [Example 1, (2S)-3-acetoxy-1-{[(3S)-3-(aminomethyl)-1-hydroxy-1,3-dihydrobenzo[2,1-c][1,2]oxaborol-7-yl]oxy}propan-2-yl acetate hydrochloride] | > 32 | > 32 | > 32 | > 32 | significantly higher |  |  |  |  |  |  |  |  |  |  |  |  | 
2 | CC(C)C(=O)OC[C@H](COc1cccc2c1B(O)O[C@@H]2CN)OC(=O)C(C)C.Cl [Example 2, (2S)-1-{[(3S)-3-(aminomethyl)-1-hydroxy-1,3-dihydrobenzo[2,1-c][1,2]oxaborol-7-yl]oxy}-3-[(2-methylpropanoyl)oxy]propan-2-yl 2-methylpropanoate hydrochloride] | > 32 | > 32 | > 32 | > 32 | significantly higher | 7.50 ± 0.73 Lg (CFU/lung) | 1.77 Lg (CFU/lung) | 968 | 23589 | inactive |  |  |  |  |  |  |  | 
3 | CC(C)(C)C(=O)OC[C@H](COc1cccc2c1B(O)O[C@@H]2CN)OC(=O)C(C)(C)C.Cl [Example 3, (2S)-3-[(2,2-dimethylpropanoyl)oxy]-1-{[(3S)-3-(aminomethyl)-1-hydroxy-1,3-dihydrobenzo[2,1-c][1,2]oxaborol-7-yl]oxy}propan-2-yl 2,2-dimethylpropanoate hydrochloride] | > 32 | > 32 | > 32 | > 32 | significantly higher |  |  |  |  | inactive |  |  |  |  |  |  |  | 
4 | CC(C)C(=O)OC[C@@H]1COc2cccc3c2B(O1)O[C@@H]3CN.Cl [Example 4, [(2S,6S)-2-(aminomethyl)-4-bora-3,5,8-trioxatricyclo[7.3.1.04,13]trideca-1(12),9(13),10-trien-6-yl]methyl 2-methylpropanoate hydrogen chloride] | > 32 | > 32 | > 32 | > 32 | significantly higher |  |  |  |  | inactive |  |  |  |  |  |  |  | 
5 | Cl.NC[C@H]1OB2O[C@H](CO)COC3C=CC=C1C23 (stereo partly drawn) [Example 5, [(2S,6R)-2-(aminomethyl)-4-bora-3,5,8-trioxatricyclo[7.3.1.04,13]trideca-1(12),10-dien-6-yl]methanol hydrochloride, reference compound] | 2 | 2 | 4 | 2 |  | 8.56 ± 0.49 Lg (CFU/lung) | 0.53 Lg (CFU/lung) |  |  |  | 5660 | 6780 | 12822 | 2.39 | 1.46 | 5360 | 1.87 | 2 to 4
6 | CCC(=O)OC[C@H](COc1cccc2c1B(O)O[C@@H]2CN)OC(=O)CC.Cl [Example 6] |  |  |  |  | significantly higher |  |  |  |  |  |  |  |  |  |  |  |  | 
7 | CC(=O)OC[C@@H]1COc2cccc3c2B(O1)O[C@@H]3CN.Cl [Example 7, [(2S,6S)-2-(aminomethyl)-4-bora-3,5,8-trioxatricyclo[7.3.1.04,13]trideca-1(12),9(13),10-trien-6-yl]methyl acetate hydrogen chloride] |  |  |  |  | significantly higher |  |  |  |  |  |  |  |  |  |  |  |  | 
8 | CCC(=O)OC[C@@H]1COc2cccc3c2B(O1)O[C@@H]3CN.Cl [Example 8, [(2S,6S)-2-(aminomethyl)-4-bora-3,5,8-trioxatricyclo[7.3.1.04,13]trideca-1(12),9(13),10-trien-6-yl]methyl propanoate hydrogen chloride] | > 32 | > 32 | > 32 | > 32 | significantly higher | 8.45 ± 0.64 Lg (CFU/lung) | 0.82 Lg (CFU/lung) |  |  | inactive |  |  |  |  |  |  |  | 
